Legend:
[1] = tested on: Puccinia recondita f. Sp. Tritici; assay: Fungicidal activity against Puccinia recondita f. sp. tritici / wheat / leaf disc curative (brown rust); type: in vivo; details: foliar, 24 h, 200 ppm in the applied formulation, wheat leaf segments, curative (applied 1 day after inoculation), compared to untreated control leaf disks, read-out: disease control
Outline: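 % disease control vs untreated, scored 6–8 d post-application. Wheat cv. Kanzler segments, spore-inoculated, dark 19° C/75% RH; formulated cpd applied 1 d post-inoc; then 19° C, 75% RH, 12 h L/12 h D.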

[2] = tested on: Glomerella lagenarium (Colletotrichum lagenarium); assay: Fungicidal activity against Glomerella lagenarium (Colletotrichum lagenarium) liquid culture / cucumber / preventative (anthracnose); type: cell-based; details: Colletotrichum orbiculare; 20 ppm in the applied formulation; liquid culture (PDB), growth inhibition measured photometrically after 3 to 4 days; compared to untreated control; read-out: disease control
Outline: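 Photometric read-out of fungal growth after 2–7 days, expressed as percent antifungal activity versus untreated check. Cryo-stored conidia in PDB; compound at 20 ppm; dark, 24 °C, 96% RH.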

Phakopsora Pachyrhizi = assay: Fungicidal activity against Phakopsora pachyrhizi / soybean / leaf disc preventative (Asian soybean rust); type: in vivo; details: foliar, 200 ppm in the applied formulation, soybean leaf disks, compared to untreated control leaf disks, read-out: disease control
Outline: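 Preventative soybean leaf-disc test: discs on water agar sprayed with diluted formulated compound, inoculated one day later with spores on the lower surface. Held 24–36 h dark at 20°C, 75% rh, then 12 h light/day; percent disease control versus untreated discs scored 12–14 days after application.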

[3] = tested on: Puccinia recondita f. Sp. Tritici; assay: Fungicidal activity against Puccinia recondita f. sp. tritici / wheat / leaf disc preventative (brown rust); type: in vivo; details: foliar, 200 ppm in the applied formulation, wheat leaf segments, preventative, compared to untreated control leaf disks, read-out: disease control
Outline: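 Compound application precedes infection: segments of wheat cv. Kanzler, sprayed at 200 ppm, are inoculated with a spore suspension after 1 day. Incubation is at 19° C. with 75% relative humidity and 12 h light/12 h darkness, and control versus untreated leaves is rated 7 to 9 days post-application.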

CCOCC(=O)N(OC)C(C)c1ccc(-c2noc(C(F)(F)F)n2)cc1 (stereo not shown) [Compound 1.264, 2-ethoxy-N-methoxy-N-[1-[4-[5-(trifluoromethyl)-1,2,4-oxadiazol-3-yl]phenyl]ethyl]-acetamide]
≥ 80%: pest or weed control at 200 ppm [1] | inhibition of growth at 20 ppm [2] | pest or weed control at 200 ppm (Phakopsora Pachyrhizi) | pest or weed control at 200 ppm [3]

CON(C(=O)C1CCCO1)C(C)c1ccc(-c2noc(C(F)(F)F)n2)cc1 (stereo not shown) [Compound 1.273, N-methoxy-N-[1-[4-[5-(trifluoromethyl)-1,2,4-oxadiazol-3-yl]phenyl]ethyl]-tetrahydrofuran-2-carboxamide]
≥ 80%: pest or weed control at 200 ppm [1] | inhibition of growth at 20 ppm [2] | pest or weed control at 200 ppm (Phakopsora Pachyrhizi) | pest or weed control at 200 ppm [3]

CON(C(=O)C1CC1F)C(C)c1ccc(-c2noc(C(F)(F)F)n2)cc1 (stereo not shown) [Compound 1.275, 2-fluoroN-methoxy-N-[1-[4-[5-(trifluoromethyl)-1,2,4-oxadiazol-3-yl]phenyl]ethyl]-cyclopropane-carboxamide]
≥ 80%: pest or weed control at 200 ppm [1] | inhibition of growth at 20 ppm [2] | pest or weed control at 200 ppm (Phakopsora Pachyrhizi) | pest or weed control at 200 ppm [3]

CCCON(Cc1ccc(-c2noc(C(F)(F)F)n2)cc1)C(=O)C1(C)COC1 [Compound 1.309, 3-methyl-N-propoxy-N-[[4-[5-(trifluoromethyl)-1,2,4-oxadiazol-3-yl]phenyl]methyl]-oxetane-3-carboxamide]
≥ 80%: pest or weed control at 200 ppm [1] | inhibition of growth at 20 ppm [2] | pest or weed control at 200 ppm (Phakopsora Pachyrhizi) | pest or weed control at 200 ppm [3]

CCCON(Cc1ccc(-c2noc(C(F)(F)F)n2)cc1)C(=O)C1CCCN1C(C)=O (stereo not shown) [Compound 1.314, 1-acetyl-N-propoxy-N-[[4-[5-(trifluoromethyl)-1,2,4-oxadiazol-3-yl]phenyl]methyl]-pyrrolidine-2-carboxamide]
≥ 80%: pest or weed control at 200 ppm [1] | inhibition of growth at 20 ppm [2] | pest or weed control at 200 ppm (Phakopsora Pachyrhizi) | pest or weed control at 200 ppm [3]

CCCON(Cc1ccc(-c2noc(C(F)(F)F)n2)cc1)C(=O)C1CC1F (stereo not shown) [Compound 1.315, 2-fluoro-N-propoxy-N-[[4-[5-(trifluoromethyl)-1,2,4-oxadiazol-3-yl]phenyl]methyl]-cyclopropane-carboxamide]
≥ 80%: pest or weed control at 200 ppm [1] | inhibition of growth at 20 ppm [2] | pest or weed control at 200 ppm (Phakopsora Pachyrhizi) | pest or weed control at 200 ppm [3]

CCCON(Cc1ccc(-c2noc(C(F)(F)F)n2)cc1)C(=O)C(C)OC (stereo not shown) [Compound 1.316, 2-methoxy-N-propoxy-N-[[4-[5-(trifluoromethyl)-1,2,4-oxadiazol-3-yl]phenyl]methyl]-propanamide]
≥ 80%: pest or weed control at 200 ppm [1] | inhibition of growth at 20 ppm [2] | pest or weed control at 200 ppm (Phakopsora Pachyrhizi) | pest or weed control at 200 ppm [3]

COCCN(Cc1ccc(-c2noc(C(F)(F)F)n2)cc1)C(=O)C1CCCCO1 (stereo not shown) [Compound 1.324, N-(2-methoxyethyl)-N-[[4-[5-(trifluoromethyl)-1,2,4-oxadiazol-3-yl]phenyl]methyl]-tetrahydropyran-2-carboxamide]
≥ 80%: pest or weed control at 200 ppm [1] | inhibition of growth at 20 ppm [2] | pest or weed control at 200 ppm (Phakopsora Pachyrhizi) | pest or weed control at 200 ppm [3]

COCCN(Cc1ccc(-c2noc(C(F)(F)F)n2)cc1)C(=O)C(C)C [Compound 1.325, N-(2-methoxyethyl)-2-methyl-N-[[4-[5-(trifluoromethyl)-1,2,4-oxadiazol-3-yl]phenyl]methyl]-propanamide]
≥ 80%: pest or weed control at 200 ppm [1] | inhibition of growth at 20 ppm [2] | pest or weed control at 200 ppm (Phakopsora Pachyrhizi) | pest or weed control at 200 ppm [3]

COCCN(Cc1ccc(-c2noc(C(F)(F)F)n2)cc1)C(=O)C1CC1(F)F (stereo not shown) [Compound 1.327, 2,2-difluoro-N-(2-methoxyethyl)-N-[[4-[5-(trifluoromethyl)-1,2,4-oxadiazol-3-yl]phenyl]methyl]-cyclopropane-carboxamide]
≥ 80%: pest or weed control at 200 ppm [1] | inhibition of growth at 20 ppm [2] | pest or weed control at 200 ppm (Phakopsora Pachyrhizi) | pest or weed control at 200 ppm [3]

CCCC(=O)N(CCOC)Cc1ccc(-c2noc(C(F)(F)F)n2)cc1 [Compound 1.329, N-(2-methoxyethyl)-N-[[4-[5-(trifluoromethyl)-1,2,4-oxadiazol-3-yl]phenyl]methyl]-butanamide]
≥ 80%: pest or weed control at 200 ppm [1] | inhibition of growth at 20 ppm [2] | pest or weed control at 200 ppm (Phakopsora Pachyrhizi) | pest or weed control at 200 ppm [3]

COCCN(Cc1ccc(-c2noc(C(F)(F)F)n2)cc1)C(=O)CC1CC1 [Compound 1.331, 2-cyclopropyl-N-(2-methoxyethyl)-N-[[4-[5-(trifluoromethyl)-1,2,4-oxadiazol-3-yl]phenyl]methyl]-acetamide]
≥ 80%: pest or weed control at 200 ppm [1] | inhibition of growth at 20 ppm [2] | pest or weed control at 200 ppm (Phakopsora Pachyrhizi) | pest or weed control at 200 ppm [3]

COCCC(=O)N(CCOC)Cc1ccc(-c2noc(C(F)(F)F)n2)cc1 [Compound 1.335, 3-methoxy-N-(2-methoxyethyl)-N-[[4-[5-(trifluoromethyl)-1,2,4-oxadiazol-3-yl]phenyl]methyl]-propanamide]
≥ 80%: pest or weed control at 200 ppm [1] | inhibition of growth at 20 ppm [2] | pest or weed control at 200 ppm (Phakopsora Pachyrhizi) | pest or weed control at 200 ppm [3]

COCCN(Cc1ccc(-c2noc(C(F)(F)F)n2)cc1)C(=O)C1CCC1 [Compound 1.337, N-(2-methoxyethyl)-N-[[4-[5-(trifluoromethyl)-1,2,4-oxadiazol-3-yl]phenyl]methyl]-cyclobutane-carboxamide]
≥ 80%: pest or weed control at 200 ppm [1] | inhibition of growth at 20 ppm [2] | pest or weed control at 200 ppm (Phakopsora Pachyrhizi) | pest or weed control at 200 ppm [3]

CCOCC(=O)N(CCOC)Cc1ccc(-c2noc(C(F)(F)F)n2)cc1 [Compound 1.339, 2-ethoxy-N-(2-methoxyethyl)-N-[[4-[5-(trifluoromethyl)-1,2,4-oxadiazol-3-yl]phenyl]methyl]-acetamide]
≥ 80%: pest or weed control at 200 ppm [1] | inhibition of growth at 20 ppm [2] | pest or weed control at 200 ppm (Phakopsora Pachyrhizi) | pest or weed control at 200 ppm [3]

COCCN(Cc1ccc(-c2noc(C(F)(F)F)n2)cc1)C(=O)C1CC1C (stereo not shown) [Compound 1.341, N-(2-methoxyethyl)-2-methyl-N-[[4-[5-(trifluoromethyl)-1,2,4-oxadiazol-3-yl]phenyl]methyl]-cyclopropane-carboxamide]
≥ 80%: pest or weed control at 200 ppm [1] | inhibition of growth at 20 ppm [2] | pest or weed control at 200 ppm (Phakopsora Pachyrhizi) | pest or weed control at 200 ppm [3]

COCCN(Cc1ccc(-c2noc(C(F)(F)F)n2)cc1)C(=O)C1(C)CC1 [Compound 1.344, N-(2-methoxyethyl)-1-methyl-N-[[4-[5-(trifluoromethyl)-1,2,4-oxadiazol-3-yl]phenyl]methyl]-cyclopropane-carboxamide]
≥ 80%: pest or weed control at 200 ppm [1] | inhibition of growth at 20 ppm [2] | pest or weed control at 200 ppm (Phakopsora Pachyrhizi) | pest or weed control at 200 ppm [3]

CCC(=O)N(CCOC)Cc1ccc(-c2noc(C(F)(F)F)n2)cc1 [Compound 1.345, N-(2-methoxyethyl)-N-[[4-[5-(trifluoromethyl)-1,2,4-oxadiazol-3-yl]phenyl]methyl]-propanamide]
≥ 80%: pest or weed control at 200 ppm [1] | inhibition of growth at 20 ppm [2] | pest or weed control at 200 ppm (Phakopsora Pachyrhizi) | pest or weed control at 200 ppm [3]

C=C(C)C(=O)N(CCOC)Cc1ccc(-c2noc(C(F)(F)F)n2)cc1 [Compound 1.346, N-(2-methoxyethyl)-2-methyl-N-[[4-[5-(trifluoromethyl)-1,2,4-oxadiazol-3-yl]phenyl]methyl]prop-2-enamide]
≥ 80%: pest or weed control at 200 ppm [1] | inhibition of growth at 20 ppm [2] | pest or weed control at 200 ppm (Phakopsora Pachyrhizi) | pest or weed control at 200 ppm [3]

CCC(C)C(=O)N(CCOC)Cc1ccc(-c2noc(C(F)(F)F)n2)cc1 (stereo not shown) [Compound 1.350, N-(2-methoxyethyl)-2-methyl-N-[[4-[5-(trifluoromethyl)-1,2,4-oxadiazol-3-yl]phenyl]methyl]-butanamide]
≥ 80%: pest or weed control at 200 ppm [1] | inhibition of growth at 20 ppm [2] | pest or weed control at 200 ppm (Phakopsora Pachyrhizi) | pest or weed control at 200 ppm [3]

COCCN(Cc1ccc(-c2noc(C(F)(F)F)n2)cc1)C(=O)C1(C)COC1 [Compound 1.351, N-(2-methoxyethyl)-3-methyl-N-[[4-[5-(trifluoromethyl)-1,2,4-oxadiazol-3-yl]phenyl]methyl]-oxetane-3-carboxamide]
≥ 80%: pest or weed control at 200 ppm [1] | inhibition of growth at 20 ppm [2] | pest or weed control at 200 ppm (Phakopsora Pachyrhizi) | pest or weed control at 200 ppm [3]

COCCN(Cc1ccc(-c2noc(C(F)(F)F)n2)cc1)C(=O)C1CCCO1 (stereo not shown) [Compound 1.355, N-(2-methoxyethyl)-N-[[4-[5-(trifluoromethyl)-1,2,4-oxadiazol-3-yl]phenyl]methyl]-tetrahydrofuran-2-carboxamide]
≥ 80%: pest or weed control at 200 ppm [1] | inhibition of growth at 20 ppm [2] | pest or weed control at 200 ppm (Phakopsora Pachyrhizi) | pest or weed control at 200 ppm [3]
